Where “and” joins values, the source holds several entries; their conditions need not be identical. Identical values can stand only once.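 96-well plates; 48 h exposure; 5 concentrations. Endpoints by linear interpolation between flanking doses. Not reached: highest tested concentration assigned. GI50 marks 50% less growth. The concentration for full growth arrest is given as TGI.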
How the values were obtained:
Test in all cases: DTP human tumour cell line panel, 48 h
BT-549 breast = system: BT-549 breast
CCRF-CEM leukemia = system: CCRF-CEM leukemia
EKVX NSCLC = system: EKVX NSCLC
HCT-116 colon = system: HCT-116 colon
MDA-MB-231 breast = system: MDA-MB-231 breast
MOLT-4 leukemia = system: MOLT-4 leukemia
NCI-H460 lung = system: NCI-H460 lung
OVCAR-8 ovarian = system: OVCAR-8 ovarian
SF-268 CNS = system: SF-268 CNS
SK-MEL-2 melanoma = system: SK-MEL-2 melanoma
SK-OV-3 ovarian = system: SK-OV-3 ovarian
SNB-19 CNS = system: SNB-19 CNS
SR leukemia = system: SR leukemia
U251 CNS = system: U251 CNS

Row | SMILES | TGI (BT-549 breast) | TGI (CCRF-CEM leukemia) | TGI (EKVX NSCLC) | TGI (HCT-116 colon) | TGI (MDA-MB-231 breast) | TGI (MOLT-4 leukemia) | TGI (NCI-H460 lung) | TGI (OVCAR-8 ovarian) | TGI (SF-268 CNS) | TGI (SK-MEL-2 melanoma) | TGI (SK-OV-3 ovarian) | TGI (SNB-19 CNS) | TGI (SR leukemia) | TGI (U251 CNS) | GI50 (BT-549 breast) | GI50 (EKVX NSCLC) | GI50 (SK-OV-3 ovarian)
1 | CCN(/C=C1/C(=O)C(c2ccccc2)N(c2ccccc2)C1=O)CC (stereo unspecified) | > 10 µM | > 10 µM | > 10 µM | > 10 µM | > 10 µM | > 10 µM | > 10 µM | > 10 µM | > 10 µM | > 10 µM | > 10 µM | > 10 µM | > 10 µM | > 10 µM | – | – | –
2 | COC(=O)/C=C(\C(=O)OC)c1cc(C)c2cc(C(C)C)ccc(C)c1-2 | > 100 µM | > 100 µM | > 100 µM | > 100 µM | > 100 µM | > 100 µM | > 100 µM | > 100 µM | > 100 µM | > 100 µM | > 100 µM | > 100 µM | > 100 µM | > 100 µM | – | – | –
3 | CC(N)(CC(O)(C(F)(F)Cl)C(F)(F)Cl)C(=O)O (stereo unspecified) | > 10 µM | > 10 µM | > 10 µM | > 10 µM | > 10 µM | > 10 µM | > 10 µM | > 10 µM | > 10 µM | – | > 10 µM | > 10 µM | > 10 µM | > 10 µM | – | – | –
4 | Cn1c(CNc2ccc(-c3n[nH]c(=S)n3C)cc2)n[nH]c1=S | > 100 µM | > 100 µM | > 100 µM | > 100 µM | > 100 µM | > 100 µM | > 100 µM | > 100 µM | > 100 µM | > 100 µM | > 100 µM | > 100 µM | – | > 100 µM | – | – | –
5 | CC(SC(=S)N1CCOCC1)C(=O)Nc1nnc(-c2ccc(Cl)cc2)o1 (stereo unspecified) | > 100 µM | – | – | 67.5 µM | > 100 µM | > 100 µM | > 100 µM | > 100 µM | > 100 µM | > 100 µM | > 100 µM | > 100 µM | 40.6 µM | > 100 µM | – | – | –
6 | COc1ccc(CCCCNCc2cccc(CNCCCCc3ccc(OC)cc3)c2)cc1 | 3.36 µM | 4.47 µM | 3.42 µM | 3.88 µM | 3.6 µM | 6.86 µM | > 19.7 µM | 3.23 µM | 3.35 µM | 3.53 µM | 4.02 µM | 3.29 µM | > 100 µM | 3.71 µM | – | – | –
7 | Cc1ccc(OCC2OC(n3cnc4c(Cl)nc(Nc5cc(Cl)cc(Cl)c5)nc43)CC2Oc2ccc(C)cc2)cc1 (stereo unspecified) | > 100 µM | > 100 µM | > 100 µM | > 100 µM | > 100 µM | > 100 µM | > 100 µM | > 100 µM | > 100 µM | > 100 µM | > 100 µM | > 100 µM | > 100 µM | > 100 µM | – | – | –
8 | O=[N+]([O-])c1ccc(/C=N/Nc2nc3ccccc3[nH]2)o1 | 31.1 µM | 26.6 µM | 67.2 µM | 36.7 µM | 70.9 µM | 27.3 µM | > 100 µM | 38 µM | 67.6 µM | – | > 100 µM | > 100 µM | 23.6 µM | 92.8 µM | – | – | –
9 | O=C(NCCC1CNc2ccccc21)OCc1ccccc1 (stereo unspecified) | > 100 µM | > 100 µM | > 100 µM | > 100 µM | > 100 µM | > 100 µM | > 100 µM | > 100 µM | > 100 µM | > 100 µM | > 100 µM | > 100 µM | > 100 µM | > 100 µM | – | – | –
10 | C=C1CC[C@@H](CCC2CCC3(OC2)O[C@]2(O)CC[C@@]3(C)OC2(C)C)C(C)(C)[C@H]1C/C=C1\CCOC1=O (stereo partly specified) | 49.1 µM | 83 µM | > 71.5 µM | 22.5 µM | > 80.4 µM | 23.9 µM | 82.7 µM | > 100 µM | > 100 µM | 48.3 µM | > 100 µM | > 100 µM | > 52.2 µM | 43.5 µM | – | – | –
11 | O=C(CCc1cc(O)cc(O)c1)NCCc1cc(O)cc(OCc2ccccc2)c1 | 66.1 µM | – | > 100 µM | > 100 µM | > 100 µM | 66.2 µM | 47.3 µM | > 100 µM | > 100 µM | > 100 µM | > 100 µM | > 100 µM | 87.3 µM | > 100 µM | – | – | –
12 | O=[N+]([O-])c1cccc2nc3ccccc3c(NCCCCCNc3c4ccccc4nc4cccc([N+](=O)[O-])c34)c12 | 0.39 µM and 1.02 µM | – | 0.353 µM and 1.25 µM | 0.0346 µM | 0.0927 µM | 0.244 µM | 0.164 µM | 0.348 µM | – | 0.285 µM | 1.25 µM and 1.14 µM | – | 0.0202 µM | – | 0.183 µM | 0.0346 µM | 0.08 µM
13 | COc1ccc2nc3c(c(N)c2c1)C1CCC3C1(C)C (stereo unspecified) | > 100 µM | 98.4 µM | > 100 µM | > 100 µM | 68.3 µM | > 100 µM | > 100 µM | > 100 µM | > 100 µM | 67.1 µM | > 100 µM | > 100 µM | > 100 µM | > 100 µM | – | – | –
14 | Cc1ccc(S[C@@](C=O)(NC(=O)OCc2ccccc2)C(F)(F)F)cc1 | 81.8 µM | 52.3 µM | 54 µM | 36.7 µM | 58.7 µM | 52 µM | 79.3 µM | 43.7 µM | > 100 µM | 60.8 µM | > 100 µM | 62.4 µM | 44.4 µM | 40.7 µM | – | – | –
15 | NCCOc1cccc(C2(N3CCCCC3)CCCCC2)c1 | 40 µM | 35.8 µM | 62.6 µM | 34.4 µM | 46.3 µM | 48.7 µM | > 100 µM | > 100 µM | 86.7 µM | 52.2 µM | > 100 µM | > 100 µM | 34.8 µM | 35.1 µM | – | – | –
16 | NNc1nnc(CCCCCCCCc2nnc(NN)n2N)n1N | 90.3 µM | > 100 µM | > 100 µM | > 100 µM | > 100 µM | > 100 µM | > 100 µM | 76.7 µM | > 100 µM | > 100 µM | > 100 µM | > 100 µM | – | 49 µM | – | – | –
